Results reported in PMC8480901 (PLoS ONE, 2021).
Values joined by “and” are separate entries in the source; they are usually repeats but may differ in a detail not shown here. Equal entries are not always repeated.

System: human PBMCs
Test: LPS-induced cytokine and chemokine levels in human PBMC supernatant (Luminex, ELISA)
Assay type: cell-based
Conditions: for TNF-α % reduction / TNF-α [pg/mL], Mean / TNF-α [pg/mL], individual value / GM-CSF % reduction / GM-CSF [pg/mL], Mean / GM-CSF [pg/mL], individual value / IL-1β % reduction / IL-1β [pg/mL], Mean / IL-1β [pg/mL], individual value / IL-6 % reduction / IL-6 [pg/mL], Mean / IL-6 [pg/mL], individual value / IL-8 % reduction / IL-8 [pg/mL], Mean / IL-8 [pg/mL], individual value: LPS-stimulated human PBMC supernatant

`C=C[C@]1(C)C[C@@H](OC(=O)CS[C@@H]2CC[C@@H](N)C[C@H]2O)[C@]2(C)[C@H](C)CC[C@]3(CCC(=O)[C@H]32)[C@@H](C)[C@@H]1O` [Lefamulin] was tested, and the TNF-α % reduction (0.03 µM) was 19%, the “TNF-α [pg/mL], Mean” value (0.03 µM) was 7210 pg/mL and the “TNF-α [pg/mL], individual value” (0.03 µM) was 7885 pg/mL and 6534 pg/mL. The GM-CSF % reduction (0.1 µM) was -3%, the “GM-CSF [pg/mL], Mean” value (0.1 µM) was 677 pg/mL and the “GM-CSF [pg/mL], individual value” (0.1 µM) was 676 pg/mL and 678 pg/mL. For the same compound, the IL-1β % reduction (0.1 µM) was 0.28%, the “IL-1β [pg/mL], Mean” value (0.1 µM) was 12749 pg/mL and the “IL-1β [pg/mL], individual value” (0.1 µM) was 11912 pg/mL and 13586 pg/mL. The IL-6 % reduction (0.1 µM) was 4%, the “IL-6 [pg/mL], Mean” value (0.1 µM) was 33560 pg/mL and the “IL-6 [pg/mL], individual value” (0.1 µM) was 32908 pg/mL and 34212 pg/mL. For the same compound, the IL-8 % reduction (0.1 µM) was 6%, the “IL-8 [pg/mL], Mean” value (0.1 µM) was 2899 pg/mL and the “IL-8 [pg/mL], individual value” (0.1 µM) was 2852 pg/mL and 2946 pg/mL. For the same compound, the TNF-α % reduction (0.1 µM) was 9%, the “TNF-α [pg/mL], Mean” value (0.1 µM) was 8157 pg/mL and the “TNF-α [pg/mL], individual value” (0.1 µM) was 7880 pg/mL and 8433 pg/mL. For the same compound, the GM-CSF % reduction (0.3 µM) was -3%, the “GM-CSF [pg/mL], Mean” value (0.3 µM) was 677 pg/mL and the “GM-CSF [pg/mL], individual value” (0.3 µM) was 692 pg/mL and 662 pg/mL. For the same compound, the IL-1β % reduction (0.3 µM) was -12%, the “IL-1β [pg/mL], Mean” value (0.3 µM) was 14379 pg/mL and the “IL-1β [pg/mL], individual value” (0.3 µM) was 14814 pg/mL and 13945 pg/mL. For the same compound, the IL-6 % reduction (0.3 µM) was -0.0984%, the “IL-6 [pg/mL], Mean” value (0.3 µM) was 34943 pg/mL and the “IL-6 [pg/mL], individual value” (0.3 µM) was 35534 pg/mL and 34352 pg/mL. The IL-8 % reduction (0.3 µM) was -13%, the “IL-8 [pg/mL], Mean” value (0.3 µM) was 3213 pg/mL and the “IL-8 [pg/mL], individual value” (0.3 µM) was 3328 pg/mL and 3097 pg/mL. For the same compound, the TNF-α % reduction (0.3 µM) was -1.74%, the “TNF-α [pg/mL], Mean” value (0.3 µM) was 9093 pg/mL and the “TNF-α [pg/mL], individual value” (0.3 µM) was 9382 pg/mL and 8804 pg/mL. For the same compound, the GM-CSF % reduction (1 µM) was -5.35%, the “GM-CSF [pg/mL], Mean” value (1 µM) was 693 pg/mL and the “GM-CSF [pg/mL], individual value” (1 µM) was 646 pg/mL and 740 pg/mL. For the same compound, the IL-1β % reduction (1 µM) was -4%, the “IL-1β [pg/mL], Mean” value (1 µM) was 13318 pg/mL and the “IL-1β [pg/mL], individual value” (1 µM) was 12337 pg/mL and 14300 pg/mL. For the same compound, the IL-6 % reduction (1 µM) was -4%, the “IL-6 [pg/mL], Mean” value (1 µM) was 36293 pg/mL and the “IL-6 [pg/mL], individual value” (1 µM) was 36311 pg/mL and 36275 pg/mL. The IL-8 % reduction (1 µM) was -10%, the “IL-8 [pg/mL], Mean” value (1 µM) was 3154 pg/mL and the “IL-8 [pg/mL], individual value” (1 µM) was 3230 pg/mL and 3077 pg/mL. The TNF-α % reduction (1 µM) was -5.41%, the “TNF-α [pg/mL], Mean” value (1 µM) was 9420 pg/mL and the “TNF-α [pg/mL], individual value” (1 µM) was 9688 pg/mL and 9151 pg/mL. The GM-CSF % reduction (3 µM) was -8%, the “GM-CSF [pg/mL], Mean” value (3 µM) was 711 pg/mL and the “GM-CSF [pg/mL], individual value” (3 µM) was 719 pg/mL and 703 pg/mL. The IL-1β % reduction (3 µM) was 4%, the “IL-1β [pg/mL], Mean” value (3 µM) was 12272 pg/mL and the “IL-1β [pg/mL], individual value” (3 µM) was 10817 pg/mL and 13728 pg/mL. For the same compound, the IL-6 % reduction (3 µM) was -8.52%, the “IL-6 [pg/mL], Mean” value (3 µM) was 37884 pg/mL and the “IL-6 [pg/mL], individual value” (3 µM) was 36958 pg/mL and 38809 pg/mL. For the same compound, the IL-8 % reduction (3 µM) was -3%, the “IL-8 [pg/mL], Mean” value (3 µM) was 3044 pg/mL and the “IL-8 [pg/mL], individual value” (3 µM) was 3098 pg/mL and 2991 pg/mL. For the same compound, the TNF-α % reduction (3 µM) was -12%, the “TNF-α [pg/mL], Mean” value (3 µM) was 9993 pg/mL and the “TNF-α [pg/mL], individual value” (3 µM) was 8826 pg/mL and 11161 pg/mL. The GM-CSF % reduction (10 µM) was -9%, the “GM-CSF [pg/mL], Mean” value (10 µM) was 717 pg/mL and the “GM-CSF [pg/mL], individual value” (10 µM) was 744 pg/mL and 689 pg/mL. For the same compound, the IL-1β % reduction (10 µM) was -2.68%, the “IL-1β [pg/mL], Mean” value (10 µM) was 13127 pg/mL and the “IL-1β [pg/mL], individual value” (10 µM) was 12893 pg/mL and 13362 pg/mL. For the same compound, the IL-6 % reduction (10 µM) was -16%, the “IL-6 [pg/mL], Mean” value (10 µM) was 40496 pg/mL and the “IL-6 [pg/mL], individual value” (10 µM) was 38929 pg/mL and 42063 pg/mL. The IL-8 % reduction (10 µM) was 13%, the “IL-8 [pg/mL], Mean” value (10 µM) was 2781 pg/mL and the “IL-8 [pg/mL], individual value” (10 µM) was 2867 pg/mL and 2696 pg/mL. The TNF-α % reduction (10 µM) was -3.32%, the “TNF-α [pg/mL], Mean” value (10 µM) was 9234 pg/mL and the “TNF-α [pg/mL], individual value” (10 µM) was 8438 pg/mL and 10030 pg/mL. For the same compound, the GM-CSF % reduction (30 µM) was -38%, the “GM-CSF [pg/mL], Mean” value (30 µM) was 905 pg/mL and the “GM-CSF [pg/mL], individual value” (30 µM) was 938 pg/mL and 871 pg/mL. For the same compound, the IL-1β % reduction (30 µM) was -19%, the “IL-1β [pg/mL], Mean” value (30 µM) was 15264 pg/mL and the “IL-1β [pg/mL], individual value” (30 µM) was 15102 pg/mL and 15425 pg/mL. For the same compound, the IL-6 % reduction (30 µM) was -24%, the “IL-6 [pg/mL], Mean” value (30 µM) was 43122 pg/mL and the “IL-6 [pg/mL], individual value” (30 µM) was 44285 pg/mL and 41958 pg/mL. The IL-8 % reduction (30 µM) was 27%, the “IL-8 [pg/mL], Mean” value (30 µM) was 2563 pg/mL and the “IL-8 [pg/mL], individual value” (30 µM) was 2485 pg/mL and 2640 pg/mL. The TNF-α % reduction (30 µM) was 33%, the “TNF-α [pg/mL], Mean” value (30 µM) was 6044 pg/mL and the “TNF-α [pg/mL], individual value” (30 µM) was 6330 pg/mL and 5758 pg/mL. The GM-CSF % reduction (100 µM) was -97%, the “GM-CSF [pg/mL], Mean” value (100 µM) was 1293 pg/mL and the “GM-CSF [pg/mL], individual value” (100 µM) was 1274 pg/mL and 1313 pg/mL. For the same compound, the IL-1β % reduction (100 µM) was -71%, the “IL-1β [pg/mL], Mean” value (100 µM) was 21910 pg/mL and the “IL-1β [pg/mL], individual value” (100 µM) was 21940 pg/mL and 21880 pg/mL. The IL-6 % reduction (100 µM) was 23%, the “IL-6 [pg/mL], Mean” value (100 µM) was 26707 pg/mL and the “IL-6 [pg/mL], individual value” (100 µM) was 26414 pg/mL and 27001 pg/mL. For the same compound, the IL-8 % reduction (100 µM) was 11%, the “IL-8 [pg/mL], Mean” value (100 µM) was 2809 pg/mL and the “IL-8 [pg/mL], individual value” (100 µM) was 2812 pg/mL and 2806 pg/mL. The TNF-α % reduction (100 µM) was 74%, the “TNF-α [pg/mL], Mean” value (100 µM) was 2354 pg/mL and the “TNF-α [pg/mL], individual value” (100 µM) was 2393 pg/mL and 2315 pg/mL. The “levels of the measured LPS-induced cytokines, chemokines, or MMP-9 in supernatants” value (human PBMCs, concentrations tested (100 μM not shown)) was “little to no reduction”.
